What was measured:
[1] = test system: osteoblasts derived from the parietal bone of rat fetus; test: Enhancing activity for the induction of alkaline phosphatase production in osteoblasts; format: cell-based; conditions: test compound 2.5 μg/ml; compared with activity without the test compound; rat fetal parietal bone osteoblasts
Procedure: The compounds of the present invention were determined for an enhancing activity for the induction of alkaline phosphatase production in osteoblasts derived from the parietal bone of rat fetus. Enhancing activities for the induction of alkaline phosphatase production at a concentration of the test compound of 2.5 μg/ml were 195% for Example 1, 155% for Example 3, 187% for Example 7 and 134% for Example 9, respectively, when compared with those activities without the test compounds.

[2] = test system: osteoblasts derived from the parietal bone of rat fetus; test: Enhancing activity for the nodule induction in osteoblasts; format: cell-based; conditions: rat fetal parietal bone osteoblasts
Procedure: The compounds of the invention were determined for an enhancing activity for the nodule induction in osteoblasts derived from the parietal bone of rat fetus. Results were 342% at 1.0 μg/ml for Example 1, 501% at 2.5 μg/ml for Example 3, 576% at 2.5 μg/ml for Example 7 and 550% at 2.5 μg/ml for Example 9, respectively.

## CSc1sc(C(N)=O)c(C)c1-c1oncc1C [Example 1, 3,4′-Dimethyl-4-(isoxazol-5-yl)-5-(methylthio)thiophene-2-carboxamide]
[1]
  Enhancing activity for the induction of alkaline phosphatase production: 195%
[2]; at 1.0 μg/ml
  Enhancing activity for the nodule induction: 342%

## CCc1cnoc1-c1c(SC)sc(C(N)=O)c1C [Example 7, 4-(4-Etkylisoxazol-5-yl)-3-methyl-5-(methylthio)-thiophene-2-carboxamide]
[1]
  Enhancing activity for the induction of alkaline phosphatase production: 187%
[2]; at 2.5 μg/ml
  Enhancing activity for the nodule induction: 576%

## CCc1c(C(N)=O)sc(SC)c1-c1oncc1C [Example 3, 3-Ethyl-4-(4-methylisoxazol-5-yl)-5-(methylthio)thiophene-2-carboxamide]
[1]
  Enhancing activity for the induction of alkaline phosphatase production: 155%
other
  melting point: 93.5 to 94.5 °C
[2]; at 2.5 μg/ml
  Enhancing activity for the nodule induction: 501%

## CSc1sc(C(N)=O)c(C)c1-c1oncc1C(C)C [Example 9]
[1]
  Enhancing activity for the induction of alkaline phosphatase production: 134%
[2]; at 2.5 μg/ml
  Enhancing activity for the nodule induction: 550%

— patent US6355663B1, “Substituted isoxazolylthiophene compounds” (Taisho Pharmaceutical Co., Ltd., priority 1998, dated 2002)
